Results: PubChem BioAssay (NCI)
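Here, GI50 denotes the concentration required for 50% inhibition of growth. The concentration for full growth arrest is given as TGI.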

How the values were obtained:
Test in all cases: inhibition of tumour cell growth, NCI panel, 384-well format
[1] = system: HCT-15 colon
[2] = system: MALME-3M melanoma
[3] = system: IGROV1 ovarian
[4] = system: OVCAR-3 ovarian
[5] = system: SF-295 CNS
[6] = system: SK-MEL-5 melanoma
[7] = system: SK-MEL-2 melanoma
[8] = system: BT-549 breast
[9] = system: SNB-19 CNS
[10] = system: T-47D breast
[11] = system: M14 melanoma
[12] = system: HCT-116 colon
[13] = system: PC-3 prostate
[14] = system: RXF 393 renal
[15] = system: OVCAR-5 ovarian
[16] = system: HL-60(TB) leukemia
[17] = system: K-562 leukemia
[18] = system: HS 578T breast
[19] = system: NCI/ADR-RES ovarian
[20] = system: RPMI-8226 leukemia
[21] = system: COLO 205 colon
[22] = system: ACHN renal
[23] = system: MCF7 breast
[24] = system: 786-0 renal
[25] = system: HOP-62 NSCLC
[26] = system: NCI-H226 lung
[27] = system: NCI-H322M lung
[28] = system: OVCAR-8 ovarian
[29] = system: SK-OV-3 ovarian

For `CCn1c(=O)c(-c2ccn[nH]2)cc2c(C)nc(N)nc21`, the GI50 [1] was 2360 nM, the TGI [1] was > 100000 nM and the GI50 [2] was 456 nM. For the same molecule, the TGI [2] was 2030 nM, the GI50 [3] was 333 nM and the TGI [3] was 1210 nM. It also gave a GI50 [4] of 853 nM, a TGI [4] of 4460 nM and a GI50 [5] of 1580 nM. For the same molecule, the TGI [5] was 8640 nM, the GI50 [6] was 1160 nM and the TGI [6] was 4000 nM. The GI50 [7] was 3220 nM, the TGI [7] was 9870 nM and the GI50 [8] was 330 nM. For the same molecule, the TGI [8] was 2760 nM, the GI50 [9] was 18100 nM and the TGI [9] was > 100000 nM. The GI50 [10] was 394 nM, the TGI [10] was 2040 nM and the GI50 [11] was 2200 nM. For the same molecule, the TGI [11] was > 27400 nM, the GI50 [12] was 5310 nM and the TGI [12] was > 100000 nM. The GI50 [13] was 369 nM, the TGI [13] was 2570 nM and the GI50 [14] was 399 nM. For the same molecule, the TGI [14] was 1900 nM, the GI50 [15] was 1010 nM and the TGI [15] was 6830 nM. The GI50 [16] was 840 nM, the TGI [16] was 7000 nM and the GI50 [17] was 6580 nM. For the same molecule, the TGI [17] was > 100000 nM, the GI50 [18] was 310 nM and the TGI [18] was 1660 nM. It also gave a GI50 [19] of 1580 nM, a TGI [19] of 8000 nM and a GI50 [20] of 232 nM. It also gave a TGI [20] of 646 nM, a GI50 [21] of 2240 nM and a TGI [21] of 7350 nM. The GI50 [22] was 2000 nM, the TGI [22] was 8330 nM and the GI50 [23] was 511 nM. The TGI [23] was > 100000 nM, the GI50 [24] was 2910 nM and the TGI [24] was 15700 nM. For the same molecule, the GI50 [25] was 1930 nM, the TGI [25] was 11600 nM and the GI50 [26] was 1330 nM. It also gave a TGI [26] of 5510 nM, a GI50 [27] of 2180 nM and a TGI [27] of 10300 nM. The GI50 [28] was 2750 nM, the TGI [28] was > 60400 nM and the GI50 [29] was 562 nM. The TGI [29] was 2930 nM.
